Test: Phase 1 SAD/MAD pharmacokinetics
Type: in vivo
Excerpt: The phase 1 study was placebo controlled and double blinded and included 52 subjects in SAD studies and 20 subjects in MAD studies.

## NCCN1CCOCC1 [aminoethyl morpholine metabolite, aminoethyl morpholine]
Elderly adults, fed versus fasted
  food effect: apparent food effect
Exposure proportional to dose over 100-900 mg of free base
  pharmacokinetics after single oral doses: linear pharmacokinetics
In vivo
  time to reach steady state upon multiple dosing: approximately 5 days post dose

— patent publication US20240398822A1, “METHODS AND COMPOSITIONS FOR TREATING AND MANAGING ALZHEIMER'S DISEASE” (Pharmatrophix, Inc., priority 2021, published 2024)
